33 molecules from ChEMBL document CHEMBL1132555, “Tyrosine kinase inhibitors. 16. 6,5,6-tricyclic benzothieno[3, 2-d]pyrimidines and pyrimido[5,4-b-] and -[4,5-b]ĭndoles as potent inhibitors of the epidermal growth factor receptor tyrosine kinase” (J Med Chem, 1999) can be followed below.

For test [1], the target named is T1, Epidermal growth factor receptor (Homo sapiens, UniProt P00533). Description: Inhibition of Epidermal growth factor receptor autophosphorylation in A431 cells.
In test [2] the target is T1, Epidermal growth factor receptor.
Description: Concentration needed to inhibit the phosphorylation of a 14-residue fragment of phospholipase C-gamma1 by Epidermal growth factor receptor (prepared from human A431 carcinoma cell vesicles by immunoaffinity chromatography)
The target of test [3] is Fibroblast growth factor receptor (Homo sapiens) (UniProt P22607+P11362+P22455+P21802). The test is described as follows: Inhibition of Fibroblast growth factor receptor at 50 uM. The test is classed as protein assay.
Test [4] deals with Proto-oncogene tyrosine-protein kinase Src (Homo sapiens) (UniProt P12931). Description: Inhibition of c-Src tyrosine kinase at 50 uM.
Proto-oncogene tyrosine-protein kinase Src (Homo sapiens), sequence (P12931 2-536 limits assumed): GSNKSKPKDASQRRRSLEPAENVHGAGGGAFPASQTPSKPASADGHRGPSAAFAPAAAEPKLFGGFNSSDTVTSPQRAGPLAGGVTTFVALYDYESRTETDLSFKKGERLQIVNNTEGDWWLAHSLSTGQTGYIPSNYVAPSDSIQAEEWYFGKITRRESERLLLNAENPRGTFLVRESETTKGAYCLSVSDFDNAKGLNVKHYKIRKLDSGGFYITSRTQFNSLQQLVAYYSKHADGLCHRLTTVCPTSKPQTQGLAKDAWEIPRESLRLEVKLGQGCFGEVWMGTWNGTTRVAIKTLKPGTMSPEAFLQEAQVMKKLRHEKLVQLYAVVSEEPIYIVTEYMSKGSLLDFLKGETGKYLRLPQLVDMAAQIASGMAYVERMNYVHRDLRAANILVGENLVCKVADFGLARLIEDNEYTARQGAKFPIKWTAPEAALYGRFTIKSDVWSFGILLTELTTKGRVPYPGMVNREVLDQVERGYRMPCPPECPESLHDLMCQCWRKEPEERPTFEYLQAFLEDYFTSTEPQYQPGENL
Test [5] can be described thus: Inhibition of Platelet-derived growth factor receptor at 50 uM.
In test [6] the target is Protein kinase C (PKC) (Homo sapiens) (UniProt O94806+P41743+P17252+P05129+Q05655+P05771+Q05513+Q02156+P24723+Q15139+Q04759). Description: Inhibition of Protein kinase C at 50 uM. The test is classed as protein assay.
In test [7] the target is Insulin receptor (Homo sapiens) (UniProt P06213). Description: Inhibition against Insulin receptor kinase at 50 uM.
Insulin receptor (Homo sapiens), sequence (P06213 28-758 limits assumed): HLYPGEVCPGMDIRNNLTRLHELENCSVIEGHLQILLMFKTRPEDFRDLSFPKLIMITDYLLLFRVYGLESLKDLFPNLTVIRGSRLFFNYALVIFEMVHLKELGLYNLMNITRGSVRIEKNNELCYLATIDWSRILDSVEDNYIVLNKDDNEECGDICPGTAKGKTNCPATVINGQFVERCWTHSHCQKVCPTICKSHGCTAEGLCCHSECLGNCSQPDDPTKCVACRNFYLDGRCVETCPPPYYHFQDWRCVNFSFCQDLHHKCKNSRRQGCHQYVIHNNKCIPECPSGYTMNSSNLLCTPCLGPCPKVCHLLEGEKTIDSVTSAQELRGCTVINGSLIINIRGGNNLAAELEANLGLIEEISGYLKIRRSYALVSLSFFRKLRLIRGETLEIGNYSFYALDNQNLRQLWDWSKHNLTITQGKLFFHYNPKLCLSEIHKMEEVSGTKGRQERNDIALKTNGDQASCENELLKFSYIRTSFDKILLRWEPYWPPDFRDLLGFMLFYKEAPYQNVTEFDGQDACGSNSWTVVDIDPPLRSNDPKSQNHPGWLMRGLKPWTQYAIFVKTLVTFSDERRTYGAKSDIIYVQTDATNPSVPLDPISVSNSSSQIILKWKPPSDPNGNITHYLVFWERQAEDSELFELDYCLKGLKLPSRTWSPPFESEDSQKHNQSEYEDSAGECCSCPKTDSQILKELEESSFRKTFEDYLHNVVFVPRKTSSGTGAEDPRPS
Insulin receptor (Homo sapiens), sequence (P06213 763-1382 limits assumed): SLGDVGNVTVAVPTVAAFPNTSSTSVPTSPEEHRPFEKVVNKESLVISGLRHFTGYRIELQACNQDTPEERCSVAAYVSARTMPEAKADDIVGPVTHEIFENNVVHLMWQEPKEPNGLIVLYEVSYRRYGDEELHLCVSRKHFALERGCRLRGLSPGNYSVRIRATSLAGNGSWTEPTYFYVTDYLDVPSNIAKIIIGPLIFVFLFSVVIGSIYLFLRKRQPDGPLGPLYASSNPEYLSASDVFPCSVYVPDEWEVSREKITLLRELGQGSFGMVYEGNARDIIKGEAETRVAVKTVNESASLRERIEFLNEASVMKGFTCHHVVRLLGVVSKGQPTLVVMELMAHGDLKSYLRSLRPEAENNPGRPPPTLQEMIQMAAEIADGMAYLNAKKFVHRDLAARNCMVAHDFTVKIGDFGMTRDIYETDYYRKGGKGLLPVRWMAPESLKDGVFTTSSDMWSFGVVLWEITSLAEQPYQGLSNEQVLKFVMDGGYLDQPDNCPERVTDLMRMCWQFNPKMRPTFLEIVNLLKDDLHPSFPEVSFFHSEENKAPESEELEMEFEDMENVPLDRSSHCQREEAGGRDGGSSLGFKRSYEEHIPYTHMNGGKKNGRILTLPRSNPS
In test [8] the target is Proto-oncogene tyrosine-protein kinase Src (Homo sapiens) (UniProt P12931). Description: Inhibition against c-Src tyrosine kinase at 1.25 uM.

T1 sequence (P00533 whole entry): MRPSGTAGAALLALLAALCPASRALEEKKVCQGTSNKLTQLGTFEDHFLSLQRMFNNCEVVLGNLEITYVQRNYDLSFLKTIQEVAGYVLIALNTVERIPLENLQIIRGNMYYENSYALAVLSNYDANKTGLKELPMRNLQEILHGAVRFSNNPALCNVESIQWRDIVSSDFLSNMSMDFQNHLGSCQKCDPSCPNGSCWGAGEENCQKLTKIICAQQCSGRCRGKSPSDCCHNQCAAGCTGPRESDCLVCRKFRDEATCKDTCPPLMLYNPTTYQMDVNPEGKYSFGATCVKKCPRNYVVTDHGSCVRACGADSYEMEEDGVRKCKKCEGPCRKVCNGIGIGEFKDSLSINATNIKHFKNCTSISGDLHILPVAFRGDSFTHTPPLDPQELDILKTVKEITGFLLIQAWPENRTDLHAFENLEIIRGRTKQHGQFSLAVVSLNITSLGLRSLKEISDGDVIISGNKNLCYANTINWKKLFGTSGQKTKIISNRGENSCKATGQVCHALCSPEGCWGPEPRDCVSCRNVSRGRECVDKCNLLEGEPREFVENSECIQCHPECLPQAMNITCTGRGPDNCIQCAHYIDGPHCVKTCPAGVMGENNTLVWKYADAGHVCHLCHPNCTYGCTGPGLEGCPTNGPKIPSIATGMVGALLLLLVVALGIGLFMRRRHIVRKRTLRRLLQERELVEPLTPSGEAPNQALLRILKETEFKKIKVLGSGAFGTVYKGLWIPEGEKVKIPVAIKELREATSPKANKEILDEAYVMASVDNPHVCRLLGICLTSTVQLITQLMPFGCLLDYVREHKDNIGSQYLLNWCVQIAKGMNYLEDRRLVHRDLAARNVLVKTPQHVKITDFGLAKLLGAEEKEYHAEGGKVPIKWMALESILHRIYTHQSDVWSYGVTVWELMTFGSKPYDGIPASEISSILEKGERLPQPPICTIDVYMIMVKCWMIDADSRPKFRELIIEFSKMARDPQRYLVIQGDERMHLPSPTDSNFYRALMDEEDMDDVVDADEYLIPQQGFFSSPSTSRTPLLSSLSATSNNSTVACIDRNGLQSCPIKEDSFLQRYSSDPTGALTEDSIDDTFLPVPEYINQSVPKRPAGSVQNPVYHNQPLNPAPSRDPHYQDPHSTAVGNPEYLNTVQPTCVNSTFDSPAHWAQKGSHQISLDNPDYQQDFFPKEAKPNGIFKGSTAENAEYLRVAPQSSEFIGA

For `Nc1nc(Nc2cccc(Br)c2)c2c(n1)[nH]c1ccccc12`, the results for the IC50 in test [1] and in test [2] were 493 nM and 147 nM, respectively.
As for `Nc1ccc2c(c1)sc1c(Nc3cccc(Br)c3)ncnc12`, the IC50 (commonly the concentration needed to halve the response being measured) in test [2] came to 0.47 nM.
`COc1cccc2sc3c(Nc4cccc(Br)c4)ncnc3c12`: the IC50 in test [2] is 20 nM.
`COc1cc2sc3c(Nc4cccc(Br)c4)ncnc3c2cc1OC` had an IC50 in test [2] of 444 nM.
For `CNc1ccc2sc3c(Nc4cccc(Br)c4)ncnc3c2c1`, the IC50 in test [1] is 33 nM; in test [2], 1.1 nM.
Molecule `COc1cccc2c1sc1c(Nc3cccc(Br)c3)ncnc12` came in with an IC50 in test [2] of 12.6 nM.
Regarding `CN(C)CCNc1[nH]cnc2c3ccccc3nc1-2`, in test [2], the IC50 was more than 100000 nM.
`CN(C)CCNc1[nH]cnc2nc3ccccc3c1-2` returned an IC50 in test [2] of more than 10000 nM.
As for `Nc1ccc2sc3c(Nc4cccc(C(F)(F)F)c4)ncnc3c2c1`, the inhibition (commonly the share of the control response that was lost under treatment) turned out to be 17% in test [3]; 13% in test [4]; 12% in test [5]; 51% in test [6]; 0% in test [7]. Half-maximal inhibition in test [2] (IC50) required 47 nM.
As to `COc1ccc2[nH]c3ncnc(Nc4cccc(Br)c4)c3c2c1`, the inhibition in test [3] was determined as 30%; in test [8] it was 8%; in test [5] it was 2%; in test [7], 0%. Further, the IC50 in test [1] was 13 nM; in test [2] it was 1.2 nM.
`Cc1cccc(Nc2ncnc3c2sc2ccc([N+](=O)[O-])cc23)c1` gave an IC50 in test [2] of 11 nM.
In test [2], `c1ccc2c(c1)[nH]c1c(NC3CCCCC3)ncnc12` returned an IC50 of more than 100000 nM.
In test [2], `Nc1cccc2c1sc1c(Nc3cccc(Br)c3)ncnc12` had an IC50 of 2.7 nM.
`Cc1nc(Nc2cccc(Br)c2)c2c(n1)[nH]c1ccccc12`: the IC50 in test [2] was more than 10000 nM.
As for `CCNc1cc2sc3c(Nc4cccc(Br)c4)ncnc3c2cc1F`, the figures for the IC50 in test [1] and in test [2] were 85 nM and 7.9 nM, respectively.
In the case of `CN(C)c1ccc2sc3c(Nc4cccc(Br)c4)ncnc3c2c1`, inhibition in test [2] was half-maximal at 19.8 nM (IC50).
For the molecule `Cc1cccc(Nc2ncnc3c2sc2ccc(N)cc23)c1`, the inhibition was 24% in test [3]; 47% in test [4]; 17% in test [5]; 44% in test [6]; 14% in test [7]. The IC50 came to 98 nM in test [1] and 2.1 nM in test [2].
`Nc1ccc2sc3c(Nc4cccc(Br)c4)ncnc3c2c1`: the inhibition in test [6] and in test [7] was 0% each time.
With `O=[N+]([O-])c1ccc2sc3c(Nc4ccccc4)ncnc3c2c1`, in test [2], the IC50 is 58 nM.
`Brc1cccc(Nc2ncnc3c2sc2ccccc23)c1`: the inhibition in test [3] stood at 21%; in test [4], 0%; in test [5] it was 0%; in test [6], 18%; in test [7], 0%.
In test [2], `Cc1cccc(Nc2cc(NCCO)ncn2)c1` showed an IC50 of 1 nM.
Still for that read-out and setting: to `Brc1cccc(Nc2ncnc3cc4[nH]ccc4cc23)c1` belongs 0.39 nM.
Turning to `COc1ccc2c(c1)sc1c(Nc3cccc(Br)c3)ncnc12`, the inhibition in test [3] came out at 19%; in test [4], 22%; in test [5], 21%; in test [6] it was 20%; in test [7], 0%.
As to `Clc1cccc(Nc2ncnc3c2sc2ncccc23)c1`, the IC50 in test [2] was more than 1000 nM.
In turn, `O=[N+]([O-])c1ccc2sc3c(Nc4cccc(C(F)(F)F)c4)ncnc3c2c1` came in with an IC50 in test [2] of 460 nM.
The same measure, in the same setting: as for `Brc1cccc(Nc2ncnc3sccc23)c1`, the figure is 35 nM; as for `O=[N+]([O-])c1ccc2c(c1)sc1c(Nc3cccc(Br)c3)ncnc12`, 48 nM.
The molecule `O=[N+]([O-])c1cccc2c1sc1c(Nc3cccc(Br)c3)ncnc12` gave an IC50 in test [2] of 158 nM.
As for `C[C@H](Nc1ncnc2c1sc1ccccc12)c1ccccc1`, the inhibition in test [3] worked out at 20%; in test [4], 0%; in test [5] it was 0%; in test [6], 7%; in test [7] it was 13%. 538 nM corresponded to half-maximal inhibition in test [2] (IC50).
The molecule `C[C@@H](Nc1[nH]cnc2c3ccccc3nc1-2)c1ccccc1` displayed an IC50 in test [2] of more than 100000 nM.
Regarding `Nc1cc2sc3c(Nc4cccc(Br)c4)ncnc3c2cc1F`, the IC50 stood at 42 nM in test [1] and 1 nM in test [2].
In the case of `c1ccc(CNc2ncnc3c2sc2ccccc23)cc1`, the inhibition in test [3] was determined as 11%; in test [4] it was 0%; in test [5] it was 10%; in test [7], 0%.
For `Cn1c2ccccc2c2c(Nc3cccc(Br)c3)ncnc21`, the IC50 in test [1] was found to be 769 nM; in test [2] it was 742 nM.
